The text below walks through data of paper PMC10303271, “Synthesis and Receptor Binding Studies of α5 GABAAR Selective Novel Imidazodiazepines Targeted for Psychiatric and Cognitive Disorders” (Molecules, 2023).

For one series, the target named is T1, hERG K+ channel (Homo sapiens, UniProt Q12809).
T1 construct: purchased NIMH Psychoactive Drug Screening Program (PDSP)
Description: PDSP radioligand binding at hERG. The following applies: human; at 10,000 nM; N = 5; read-out: Binding Affinity at hERG % Inhibition (Primary Binding). Put shortly: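 Counts of filter-retained radioligand gave binding, analysed by nonlinear regression (N = 6). Incubation lasted 90 min at rt in darkness; 10 µM reference compound served for nonspecific binding; filters pre-soaked in 0.3% PEI.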

A further series has as its target T2, D2 (Homo sapiens, UniProt P14416).
T2 construct: purchased NIMH Psychoactive Drug Screening Program (PDSP)
Description: PDSP primary binding D2. The following applies: 1.5 h; primary binding, 10,000 nM; last figure of the line = mean of the 4 before it; read-out: D2, PDSP raw data, mean. As to the method:
(§1) To determine if any off-target receptor-binding effects are present, all the novel ligands were sent to the National Institute of Mental Health (NIMH), Psychoactive Drug Screening Program (PDSP). The ligands were screened over a panel of 47 receptors, ion channels, and transporters to determine any other possible interactions with […]. The hERG-binding was also determined. […] No binding of the test compounds to calcium channels was observed. […] It is necessary to screen the compounds for hERG-binding during the early process of drug discovery. The unintentional binding of many drugs to hERG can cause blockade of hERG K+ channels in the heart, which can cause many side effects including cardiac arrhythmias and sudden death. […] All of the α5 imidazodiazepines were tested for hERG-binding.
(§2) The NIMH PDSP assay protocol book [https://kidbdev.med.unc.edu/databases/PDSP%20Protocols%20II%202013-03-28.pdf accessed on 23 April 2023]. describes the protocols for primary and secondary radio-ligand binding assays. These assays were carried out in a final volume of 125 µL per well in the appropriate binding buffer.
(§3) The binding of a ligand to a receptor, ion channel, or transporter was determined in the […] of 10 µM of the appropriate reference compound. […] Plates were incubated in the dark for 90 min at rt, and the reactions were stopped by vacuum filtration onto 0.3% polyethyleneimine (PEI) soaked 96-well filter mats using a 96-well Filtermateharvester. This was followed by three washes with cold PBS buffer. Radioactivity was then counted on a Microbeta counter. Nonlinear regression was used to analyze the data with N = 6 replicates.

For a further series, the target named is T3, D3 (Homo sapiens, UniProt P35462).
T3 construct: purchased NIMH Psychoactive Drug Screening Program (PDSP)
T3 sequence (P35462 whole entry): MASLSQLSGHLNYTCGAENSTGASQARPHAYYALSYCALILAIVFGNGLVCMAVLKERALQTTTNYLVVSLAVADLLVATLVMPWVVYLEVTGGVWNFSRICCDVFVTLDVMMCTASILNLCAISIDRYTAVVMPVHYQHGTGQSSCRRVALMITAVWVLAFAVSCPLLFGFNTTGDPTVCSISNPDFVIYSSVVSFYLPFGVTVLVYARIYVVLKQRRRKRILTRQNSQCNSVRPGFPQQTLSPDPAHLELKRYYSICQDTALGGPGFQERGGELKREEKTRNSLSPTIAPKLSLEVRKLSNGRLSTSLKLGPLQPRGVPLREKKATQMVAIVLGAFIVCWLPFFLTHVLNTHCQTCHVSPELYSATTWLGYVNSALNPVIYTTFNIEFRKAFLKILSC
Description: PDSP primary binding D3. The conditions noted are these: 1.5 h; primary binding, 10,000 nM; last figure of the line = mean of the 4 before it; read-out: D3, PDSP raw data, mean. As to the method: as §1, §2, §3

The next series concerns the target T4, DAT (Homo sapiens, UniProt Q01959).
T4 construct: purchased NIMH Psychoactive Drug Screening Program (PDSP)
Description: PDSP primary binding DAT. The conditions noted are these: 1.5 h, primary binding, 10,000 nM; last figure of the line = mean of the 4 before it; some tables list DAT twice; read-out: DAT, PDSP raw data, mean. How it is done: as §1, §2, §3

Another series relates to GABAA. Description: PDSP primary binding GABAA. The conditions noted are these: primary binding, 10,000 nM; last figure of the line = mean of the 4 before it; some tables list it twice. As to the method: as §1, §2, §3
For the next series, the target named is T5, SERT (Homo sapiens, UniProt P31645).
T5 construct: purchased NIMH Psychoactive Drug Screening Program (PDSP)
As to the kind of experiment: PDSP primary binding SERT. The conditions noted are these: primary binding, 10,000 nM; last figure of the line = mean of the 4 before it; some tables list SERT twice; read-out: SERT, PDSP raw data, mean. How it is done: as §1, §2, §3

Another series relates to Sigma 1. As to the kind of experiment: PDSP primary binding Sigma 1. The following applies: primary binding, 10,000 nM; last figure of the line = mean of the 4 before it. As to the method:
as §1, §2, §3

For a further series, the target named is T6, HCA2 (Homo sapiens, UniProt Q8TDS4).
T6 construct: purchased NIMH Psychoactive Drug Screening Program (PDSP)
T6 sequence (Q8TDS4 whole entry): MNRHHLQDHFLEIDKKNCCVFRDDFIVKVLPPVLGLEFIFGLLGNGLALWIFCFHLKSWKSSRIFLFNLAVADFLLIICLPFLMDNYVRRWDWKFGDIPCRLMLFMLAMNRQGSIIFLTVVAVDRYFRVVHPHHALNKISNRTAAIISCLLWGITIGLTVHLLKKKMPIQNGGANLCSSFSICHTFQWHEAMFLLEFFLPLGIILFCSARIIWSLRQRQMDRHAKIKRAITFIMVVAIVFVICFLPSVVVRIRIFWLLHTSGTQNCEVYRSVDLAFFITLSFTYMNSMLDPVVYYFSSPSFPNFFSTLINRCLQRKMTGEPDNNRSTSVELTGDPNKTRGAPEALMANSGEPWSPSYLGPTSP
As to the kind of experiment: PDSP primary binding HCA2. The conditions noted are these: primary binding, 10,000 nM; last figure of the line = mean of the 4 before it; read-out: HCA2, PDSP raw data, mean. How it is done:
as §1, §2, §3

Another series deals with T7, M3D (Homo sapiens, UniProt P20309, A239G/Y149C).
T7 construct: purchased NIMH Psychoactive Drug Screening Program (PDSP)
T7 sequence (P20309 whole entry Y149C/A239G): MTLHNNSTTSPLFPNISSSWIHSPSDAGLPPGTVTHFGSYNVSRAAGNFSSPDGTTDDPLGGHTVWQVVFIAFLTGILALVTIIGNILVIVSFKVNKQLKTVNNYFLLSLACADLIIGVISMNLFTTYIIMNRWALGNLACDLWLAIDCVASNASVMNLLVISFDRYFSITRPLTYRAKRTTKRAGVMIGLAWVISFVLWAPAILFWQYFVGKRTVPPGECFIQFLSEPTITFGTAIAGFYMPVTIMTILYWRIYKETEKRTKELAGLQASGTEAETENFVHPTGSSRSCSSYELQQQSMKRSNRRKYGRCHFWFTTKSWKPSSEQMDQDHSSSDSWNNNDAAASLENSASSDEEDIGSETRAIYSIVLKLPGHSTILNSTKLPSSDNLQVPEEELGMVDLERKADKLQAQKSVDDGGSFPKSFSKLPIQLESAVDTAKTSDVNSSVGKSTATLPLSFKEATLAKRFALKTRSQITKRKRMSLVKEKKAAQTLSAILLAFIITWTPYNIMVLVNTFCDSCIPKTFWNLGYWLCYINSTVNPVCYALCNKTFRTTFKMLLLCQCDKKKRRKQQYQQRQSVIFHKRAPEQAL
Description: PDSP primary binding M3D. The following applies: primary binding, 10,000 nM; last figure of the line = mean of the 4 before it; read-out: M3D, PDSP raw data, mean. How it is done: as §1, §2, §3

The target of another series is T8, Alpha3Beta2 (Rattus norvegicus, UniProt P04757+P12390).
T8 construct: purchased NIMH Psychoactive Drug Screening Program (PDSP)
T8 sequence (P04757 26-499): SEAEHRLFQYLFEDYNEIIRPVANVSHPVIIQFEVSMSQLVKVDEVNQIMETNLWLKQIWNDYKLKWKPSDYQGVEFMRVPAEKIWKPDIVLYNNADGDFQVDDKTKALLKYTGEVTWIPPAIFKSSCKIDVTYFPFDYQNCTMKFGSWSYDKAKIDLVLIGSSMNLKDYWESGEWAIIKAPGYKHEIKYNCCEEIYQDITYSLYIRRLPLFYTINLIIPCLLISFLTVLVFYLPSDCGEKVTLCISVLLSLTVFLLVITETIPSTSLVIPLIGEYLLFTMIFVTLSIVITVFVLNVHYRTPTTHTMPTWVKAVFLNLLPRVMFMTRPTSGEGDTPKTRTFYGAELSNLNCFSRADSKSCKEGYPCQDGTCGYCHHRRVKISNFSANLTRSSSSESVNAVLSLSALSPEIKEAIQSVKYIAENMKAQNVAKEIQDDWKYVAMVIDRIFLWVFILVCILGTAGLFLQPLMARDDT
T8 sequence (P12390 25-500): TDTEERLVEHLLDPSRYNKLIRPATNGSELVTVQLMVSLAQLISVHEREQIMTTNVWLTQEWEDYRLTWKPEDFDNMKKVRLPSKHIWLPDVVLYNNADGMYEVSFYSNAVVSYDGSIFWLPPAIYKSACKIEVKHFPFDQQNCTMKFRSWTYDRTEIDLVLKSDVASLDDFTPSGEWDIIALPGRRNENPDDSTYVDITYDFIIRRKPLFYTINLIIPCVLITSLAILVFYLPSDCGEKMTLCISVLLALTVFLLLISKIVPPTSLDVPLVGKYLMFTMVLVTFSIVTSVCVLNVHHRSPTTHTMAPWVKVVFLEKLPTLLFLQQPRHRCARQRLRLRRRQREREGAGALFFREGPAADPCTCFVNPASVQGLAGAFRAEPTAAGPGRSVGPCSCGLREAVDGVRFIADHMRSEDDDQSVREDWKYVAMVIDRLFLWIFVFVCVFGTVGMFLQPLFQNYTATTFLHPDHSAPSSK
Description: PDSP primary binding Alpha3Beta2. The conditions noted are these: primary binding, 10,000 nM; last figure of the line = mean of the 4 before it; read-out: Alpha3Beta2, PDSP raw data, mean. As to the method: as §1, §2, §3

Another series has as its target T9, NOP (Homo sapiens, UniProt P41146).
T9 construct: purchased NIMH Psychoactive Drug Screening Program (PDSP)
As to the kind of experiment: PDSP primary binding NOP. The following applies: primary binding, 10,000 nM; last figure of the line = mean of the 4 before it. How it is done: as §1, §2, §3

A further series deals with T10, OT (Homo sapiens, UniProt P30559).
T10 construct: purchased NIMH Psychoactive Drug Screening Program (PDSP)
T10 sequence (P30559 1-389): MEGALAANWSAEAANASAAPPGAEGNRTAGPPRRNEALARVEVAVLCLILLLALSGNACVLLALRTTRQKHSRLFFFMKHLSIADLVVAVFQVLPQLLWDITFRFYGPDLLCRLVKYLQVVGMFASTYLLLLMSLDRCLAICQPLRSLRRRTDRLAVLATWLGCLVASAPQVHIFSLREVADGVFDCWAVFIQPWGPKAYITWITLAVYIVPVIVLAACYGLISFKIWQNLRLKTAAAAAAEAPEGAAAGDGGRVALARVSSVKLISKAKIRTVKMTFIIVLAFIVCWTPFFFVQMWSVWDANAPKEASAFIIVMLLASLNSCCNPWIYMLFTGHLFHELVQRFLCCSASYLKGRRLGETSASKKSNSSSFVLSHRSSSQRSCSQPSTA
As to the kind of experiment: PDSP primary binding OT (Oxytocin). The following applies: primary binding, 10,000 nM; last figure of the line = mean of the 4 before it; some tables list it twice; read-out: OT (also Oxytocin), PDSP raw data, mean. As to the method:
as §1, §2, §3

In the next series the target is T11, AT2 (Homo sapiens, UniProt P50052).
T11 construct: purchased NIMH Psychoactive Drug Screening Program (PDSP)
As to the kind of experiment: PDSP primary binding AT2. The following applies: primary binding, 10,000 nM; last figure of the line = mean of the 4 before it. As to the method:
as §1
The NIMH PDSP assay protocol book [https://kidbdev.med.unc.edu/databases/PDSP%20Protocols%20II%202013-03-28.pdf accessed on 23 April 2023]. describes the protocols for primary and secondary radio-ligand binding assays. […]
The binding of a ligand to a receptor, ion channel, or transporter was determined in the […] of 10 µM of the appropriate reference compound. Nonspecific binding was also determined in the absence and presence of 10 µM of the appropriate reference compound. […] Radioactivity was then counted on a Microbeta counter. […]

T1 sequence (Q12809 whole entry): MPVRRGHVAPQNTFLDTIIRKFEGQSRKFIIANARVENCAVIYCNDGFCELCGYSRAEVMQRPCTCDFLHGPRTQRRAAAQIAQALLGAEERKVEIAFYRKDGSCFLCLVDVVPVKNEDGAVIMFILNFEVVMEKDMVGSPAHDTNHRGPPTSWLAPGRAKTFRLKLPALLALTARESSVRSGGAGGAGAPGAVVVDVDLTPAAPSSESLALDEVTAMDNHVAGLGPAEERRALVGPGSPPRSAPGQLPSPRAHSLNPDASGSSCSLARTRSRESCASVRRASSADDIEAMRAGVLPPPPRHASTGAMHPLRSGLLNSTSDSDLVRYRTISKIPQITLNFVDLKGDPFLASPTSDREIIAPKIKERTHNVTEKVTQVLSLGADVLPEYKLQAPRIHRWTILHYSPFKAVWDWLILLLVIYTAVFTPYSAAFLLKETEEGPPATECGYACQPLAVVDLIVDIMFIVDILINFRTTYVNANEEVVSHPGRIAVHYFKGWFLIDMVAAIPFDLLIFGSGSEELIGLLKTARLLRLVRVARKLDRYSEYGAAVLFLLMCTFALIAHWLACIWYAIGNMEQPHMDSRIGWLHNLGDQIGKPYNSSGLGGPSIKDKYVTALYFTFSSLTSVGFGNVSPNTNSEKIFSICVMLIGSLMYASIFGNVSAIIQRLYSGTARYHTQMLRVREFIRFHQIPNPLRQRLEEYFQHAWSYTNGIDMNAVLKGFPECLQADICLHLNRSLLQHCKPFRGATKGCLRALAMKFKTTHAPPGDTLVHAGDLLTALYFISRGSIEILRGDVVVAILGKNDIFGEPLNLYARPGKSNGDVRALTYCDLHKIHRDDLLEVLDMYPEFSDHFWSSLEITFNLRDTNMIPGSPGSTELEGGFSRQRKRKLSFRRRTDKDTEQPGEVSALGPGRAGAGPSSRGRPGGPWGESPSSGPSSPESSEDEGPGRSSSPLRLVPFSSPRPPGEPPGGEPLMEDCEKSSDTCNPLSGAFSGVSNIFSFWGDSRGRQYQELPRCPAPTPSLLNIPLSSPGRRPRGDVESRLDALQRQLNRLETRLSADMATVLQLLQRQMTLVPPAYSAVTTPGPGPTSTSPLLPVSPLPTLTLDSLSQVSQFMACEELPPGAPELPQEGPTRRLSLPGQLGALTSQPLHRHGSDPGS
T9 sequence (P41146 whole entry): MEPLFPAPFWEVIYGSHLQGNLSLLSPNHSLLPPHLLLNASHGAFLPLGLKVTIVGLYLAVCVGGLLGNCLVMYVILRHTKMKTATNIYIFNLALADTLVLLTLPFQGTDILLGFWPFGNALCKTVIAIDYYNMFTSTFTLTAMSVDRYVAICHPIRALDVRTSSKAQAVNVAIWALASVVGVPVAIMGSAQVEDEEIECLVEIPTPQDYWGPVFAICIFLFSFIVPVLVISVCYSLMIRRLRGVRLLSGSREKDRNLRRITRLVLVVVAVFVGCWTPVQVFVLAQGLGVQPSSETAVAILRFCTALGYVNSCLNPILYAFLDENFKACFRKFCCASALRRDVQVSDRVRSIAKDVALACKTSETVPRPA
T2 sequence (P14416 whole entry): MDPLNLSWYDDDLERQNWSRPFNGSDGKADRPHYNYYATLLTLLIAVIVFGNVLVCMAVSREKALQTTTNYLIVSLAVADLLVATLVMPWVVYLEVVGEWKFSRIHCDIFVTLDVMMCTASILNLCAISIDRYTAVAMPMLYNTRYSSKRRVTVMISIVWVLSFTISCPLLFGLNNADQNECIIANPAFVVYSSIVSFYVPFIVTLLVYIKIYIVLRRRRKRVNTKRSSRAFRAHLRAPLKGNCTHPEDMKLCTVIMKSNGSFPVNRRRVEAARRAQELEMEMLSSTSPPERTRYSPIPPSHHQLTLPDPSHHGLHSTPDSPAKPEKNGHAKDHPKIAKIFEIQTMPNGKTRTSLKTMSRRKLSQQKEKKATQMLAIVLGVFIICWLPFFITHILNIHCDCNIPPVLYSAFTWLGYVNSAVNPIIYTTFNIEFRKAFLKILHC
T4 sequence (Q01959 whole entry): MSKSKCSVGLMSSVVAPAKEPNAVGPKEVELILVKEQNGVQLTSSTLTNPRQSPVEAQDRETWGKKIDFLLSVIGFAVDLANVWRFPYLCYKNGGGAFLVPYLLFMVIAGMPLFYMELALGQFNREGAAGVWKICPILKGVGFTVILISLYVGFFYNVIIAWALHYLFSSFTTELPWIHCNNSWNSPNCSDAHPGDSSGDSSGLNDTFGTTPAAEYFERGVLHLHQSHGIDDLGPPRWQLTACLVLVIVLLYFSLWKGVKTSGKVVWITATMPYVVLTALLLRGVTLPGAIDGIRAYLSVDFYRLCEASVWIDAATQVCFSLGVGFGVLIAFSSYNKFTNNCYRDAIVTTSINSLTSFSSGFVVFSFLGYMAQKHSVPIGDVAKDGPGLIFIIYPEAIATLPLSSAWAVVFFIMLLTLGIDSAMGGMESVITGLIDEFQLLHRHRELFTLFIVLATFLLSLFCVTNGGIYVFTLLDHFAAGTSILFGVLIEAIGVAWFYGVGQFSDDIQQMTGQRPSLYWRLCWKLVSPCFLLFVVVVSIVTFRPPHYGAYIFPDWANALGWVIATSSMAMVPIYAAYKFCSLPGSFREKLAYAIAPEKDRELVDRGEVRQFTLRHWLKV

`C#Cc1ccc2c(c1)C(c1ccccn1)=N[C@@H](C)c1c(C(=O)N(C)C)ncn1-2` [Compound 31, (S)-8-Ethynyl-N,N,4-trimethyl-6-(pyridin-2′-yl)-4H-benzo[f]imidazo[1,5-a][1,4]diazepine-3-carboxamide]: at hERG K+ channel, the inhibition at 90 min, 10000 nM was found to be 0.95 ± 2.21%. For the same compound, the inhibition at 10 µM on D2 stood at 3.47%; on D3 it was 1.06%; on DAT, 15.5%; at SERT, 4.04%; on HCA2, 20.8%; on M3D it was 6.59%. In addition, the inhibition at 10 µM on Alpha3Beta2 is 3.57%; on OT it was 23.7%. Also, in the series on GABAA, the “GABAA, PDSP raw data, mean” value is on record as 9.39%. In addition, in the series on Sigma 1, the “Sigma 1, PDSP raw data, mean” value was found to be 27.79%. The “NOP, PDSP raw data, mean” value on NOP is given as -14.49%.

`C[C@H]1N=C(c2ccccc2F)c2cc(Cl)ccc2-n2cnc(-c3nc(C4CC4)no3)c21` [Compound 38, (R)-5-(8-Chloro-6-(2′-fluorophenyl)-4-methyl-4H-benzo[f]imidazo[1,5-a][1,4]diazepin-3-yl)-3-cyclopropyl-1,2,4-oxadiazole]: on hERG K+ channel, the inhibition at 90 min, 10000 nM is 1.86 ± 25.6%. For the same compound, the inhibition at 10 µM on D2 is 21.8%; at D3 it was -0.07%; on DAT, 40%; at SERT, 13.1%; on HCA2, -1.1%; on M3D, 6.92%. In addition, the inhibition at 10 µM on Alpha3Beta2 was found to be 6.96%. Moreover, in the series on Sigma 1, the “Sigma 1, PDSP raw data, mean” value is recorded as -1.51%. In addition, at NOP, the “NOP, PDSP raw data, mean” value is -17%. Moreover, on AT2, the “AT2, PDSP raw data, mean” value worked out at 24.14%.

On to `CC(C)c1noc(-c2ncn3c2[C@@H](C)N=C(c2ccccc2F)c2cc(Cl)ccc2-3)n1` [Compound 37, (R)-5-(8-Chloro-6-(2′-fluorophenyl)-4-methyl-4H-benzo[f]imidazo[1,5-a][1,4]diazepin-3-yl)-3-isopropyl-1,2,4-oxadiazole], for which the inhibition at 90 min, 10000 nM at hERG K+ channel stood at 4.21 ± 10.8%. The inhibition at 10 µM at D2 was 18.2%; on D3, -0.7%; at DAT, 37.5%; at HCA2, 35.2%; at M3D it was -23.4%; on Alpha3Beta2, 5.77%. Moreover, the inhibition at 10 µM at OT is 10.5%. The “Sigma 1, PDSP raw data, mean” value in the series with Sigma 1 came out at 5.67%. For the same compound, the “NOP, PDSP raw data, mean” value on NOP is recorded as -10.12%. At AT2, the “AT2, PDSP raw data, mean” value amounted to 12.03%.
